Measurements published in article PMC9327782, “Benzoxazole derivatives as new VEGFR-2 inhibitors and apoptosis inducers: design, synthesis, in silico studies, and antiproliferative evaluation” (Journal of Enzyme Inhibition and Medicinal Chemistry, 2022).
Where two headings read alike, the source gives them in different places.

What was measured:
Bcl-2 = experiment: Western blot, Bcl-2 level in HepG2 cells; format: cell-based, human; conditions: HepG2, 24 h
Procedure: Compound 12lwas subjected to further cellular mechanistic study. The cellular levels of BAX and Bcl-2 were measured using the western blot technique after compound 12l was applied to HepG2 cells for 24 h.
The western blot technique was applied in accordance with the comprehensive description in Supplementary data[38–40] […]
The proteins expression of cleaved caspase‐3, BAX, and Bcl‐2 were determined using Western blot analysis. In brief, HepG2 cells were treated with control, or with the synthesized compounds.
Then cells were lysed in 250 μL precold lysis buffer (pH 7.4: Tris‐Base [10 mM], NaCl [100 mM], ethylenediaminetetraacetic acid [EDTA, 25 mM], ethylene glycol bis (2‐aminoethyl) tetraacetic acid [EGTA, 25 mM], 1% [v/v] NP‐40, and 1% [v/v] Triton X‐100) supplemented with 1:350 protease:phosphatase inhibitors cocktail (Sigma). The cells were immediately frozen at −20°C for 1.5 hours for further lysis, collected by cell scraper, sonicated 3 × 10 seconds, and centrifuged (13000 rpm, 15 minutes). Total protein concentrations in the supernatant were determined colorimetrically using the Pierce 660 nm Protein Assay method (Thermo Fisher Scientific, Rockford, IL), with BSA as the standard. […]

HepG2 cells = experiment: Flow cytometry cell cycle analysis (PI staining); format: cell-based, human; conditions: HepG2, 10.50 µM, 24 h
Procedure: Compound 12I, achieved notable cytotoxic and VEGFR-2 inhibitory potencies was further studied mechanistically for cell cycle progression and induction of apoptosis in HepG2 cells. Cell cycle process was analysed after exposure of HepG2 cells to 12I with a concentration of 10.50 µM for 24 h.
This assay was applied using propidium iodide (PI) staining in accordance with the comprehensive description in Supplementary data[34]^,[35] […]
3. Flow cytometry analysis for cell cycle
To determine the role of the synthesized compounds in cell cycle distribution, cell cycle analysis was performed using propidium iodide (PI) staining and flow cytometry analysis for compound
12l. Flow Cytometry Kit for Cell Cycle Analysis (ab139418_Propidium Iodide Flow Cytometry Kit/BD) was used in this test. HepG2 cells were treated with compound 12l (10.50 µM) for 24 h.
Then, the cells were fixed in 70% ethanol at 4 °C for 12 h. After that, the cells were washed with cold PBS, incubated with 100 μl RNase A at 37 °C for 30 min, and stained with 400 μl PI in the dark at room temperature for further 30 min. The stained cells were measured using Epics XL-MCL™ Flow Cytometer (Beckman Coulter), and the data were analyzed using Flowing software (version 2.5.1, Turku Centre for Biotechnology, Turku, Finland) .

MCF-7 cell line = experiment: In vitro anti-proliferative MTT assay, MCF-7; format: cell-based, human; conditions: Homo sapiens
Description: The cytotoxicity results were obtained as median growth inhibitory concentration (IC50).
MTT assay protocol. This method was applied in accordance with the comprehensive description in Supplementary data. […]
5 Raw data of cytotoxity and VEGFR -2 assay […]
Experimental of biological testing
1. In vitro anti-proliferative activity
MTT assay protocol was applied to assess the anti-proliferative activity of the synthesized compounds. Two human cancer cell lines (MCF-7 and HepG-2) and one normal cell line (WI-38) were used in this test. At first, the cell lines were cultured in RPMI -1640 medium with 10% fetal bovine serum. Antibiotics (100 units/ml penicillin and100 µg/ml streptomycin ) were added at 37 °C in a 5% CO2 incubator. The cell lines were seeded in a 96-well plate at a density of 1.0 x 10^4 cells / well at 37 °C for 24 h under 5% CO2. After incubation, the cells were treated with different […]
concentration of the synthesized compounds and incubated for 24 h. After 24 h of drug treatment, 20 µl of MTT solution at 5mg/ml was added and incubated for 4 h. Dimethyl sulfoxide (DMSO) in volume of 100 µl was added into each well to dissolve the purple formazan formed. The colorimetric assay was measured and recorded at absorbance of 570 nm using a plate reader (EXL 800, USA). The relative cell viability in percentage was calculated as (A570 of treated samples/A570 of untreated sample) X 100. […]

VEGFR-2 = biological target: T1, VEGFR-2 (Homo sapiens, UniProt P35968); experiment: In vitro VEGFR-2 kinase assay (ELISA kit); format: biochemical
T1 construct: purchased
T1 sequence (P35968 20-1356): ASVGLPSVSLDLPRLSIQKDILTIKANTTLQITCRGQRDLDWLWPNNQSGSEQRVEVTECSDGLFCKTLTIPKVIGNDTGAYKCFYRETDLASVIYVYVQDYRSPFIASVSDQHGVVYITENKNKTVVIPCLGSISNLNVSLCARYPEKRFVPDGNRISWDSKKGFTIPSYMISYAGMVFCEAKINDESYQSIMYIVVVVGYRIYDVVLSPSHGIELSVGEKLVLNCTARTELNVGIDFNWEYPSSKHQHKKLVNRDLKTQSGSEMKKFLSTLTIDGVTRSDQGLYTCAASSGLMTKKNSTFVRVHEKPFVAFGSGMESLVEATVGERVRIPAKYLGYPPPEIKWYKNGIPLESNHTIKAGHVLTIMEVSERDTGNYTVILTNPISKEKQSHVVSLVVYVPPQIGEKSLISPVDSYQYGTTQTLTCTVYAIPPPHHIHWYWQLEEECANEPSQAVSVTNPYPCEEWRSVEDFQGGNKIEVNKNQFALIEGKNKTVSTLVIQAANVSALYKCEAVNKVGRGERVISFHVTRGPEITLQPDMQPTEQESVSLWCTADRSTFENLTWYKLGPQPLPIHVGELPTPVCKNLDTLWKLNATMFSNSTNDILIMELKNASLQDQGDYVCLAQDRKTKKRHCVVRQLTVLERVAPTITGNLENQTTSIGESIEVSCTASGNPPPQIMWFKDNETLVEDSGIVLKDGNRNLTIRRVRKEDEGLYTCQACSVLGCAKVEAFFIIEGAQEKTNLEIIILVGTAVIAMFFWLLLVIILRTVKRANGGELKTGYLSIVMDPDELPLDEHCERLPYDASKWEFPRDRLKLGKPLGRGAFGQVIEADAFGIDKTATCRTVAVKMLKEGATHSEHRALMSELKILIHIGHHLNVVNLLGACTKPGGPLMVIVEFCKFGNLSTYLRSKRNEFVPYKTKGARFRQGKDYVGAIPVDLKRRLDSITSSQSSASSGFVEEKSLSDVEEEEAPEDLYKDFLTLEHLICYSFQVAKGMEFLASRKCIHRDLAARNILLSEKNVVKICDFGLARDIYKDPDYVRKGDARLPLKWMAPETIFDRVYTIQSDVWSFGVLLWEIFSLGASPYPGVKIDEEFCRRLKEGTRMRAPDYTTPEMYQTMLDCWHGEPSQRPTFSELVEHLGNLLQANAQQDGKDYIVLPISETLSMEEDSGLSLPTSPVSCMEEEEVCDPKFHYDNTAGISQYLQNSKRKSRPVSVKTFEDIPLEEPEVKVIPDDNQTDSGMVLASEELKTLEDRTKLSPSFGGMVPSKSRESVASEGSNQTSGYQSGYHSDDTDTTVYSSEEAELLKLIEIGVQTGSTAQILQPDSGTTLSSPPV
Procedure: The assay was applied by ELISA kits in accordance with the comprehensive description in[18]^,[33] as described in Supplementary data. […]
2. In vitro VEGFR-2 kinase assay
All the synthesized compounds were tested for its inhibitory activity against VEGFR-2. Human VEGFR-2 ELISA kit (Enzyme-Linked Immunosorbent Assay) was utilized in this test. At first, specific antibody for VEGFR-2 was seeded on a 96-well plate and 100 μL of the standard solution or the tested compound was added, all were incubated at room temperature for 2.5 h. Then washed, 100 μL of the prepared biotin antibody was added, then incubated at room temperature for additional 1 h. and washed. Then, 100 μL of streptavidin solution was added and incubated for 45 min. at room temperature. Washed again, 100 μL of TMB Substrate reagent was added and incubated for 30 min. at room temperature. 50 μL of the stop solution was added, then read at 450 […]
nm immediately. […]

IC50 (MCF-7 cell line; MCF7, 24 h, MTT, 24 h treatment, mean of three experiments, read-out: In vitro IC50 MCF-7): 15.2 ± 1.1 µM
IC50 (MCF-7 cell line; MCF7, supplement raw data, dose-response curve fit, read-out: LogIC50 best-fit value, MCF-7 (converted)): 15.2 µM
IC50 (VEGFR-2; ELISA kit): 97.4 nM
HillSlope best-fit value, VEGFR-2 (VEGFR-2; supplement raw data, curve fit): -0.4614
LogIC50 best-fit value, VEGFR-2 (VEGFR-2; supplement raw data, curve fit): 1.988 Log (nM)
Compound: Cc1ccc2oc(SCC(=O)Nc3ccc(C(=O)Nc4cccc(Cl)c4)cc3)nc2c1 [Compound 12l, N-(3-Chlorophenyl)-4–(2-((5-methylbenzo[d]oxazol-2-yl)thio)acetamido)benzamide]
Protein expression (normalized to β-actin) Bcl-2 (Bcl-2; control = 1.00): 0.47 ± 0.05
Bcl-2 level decrease (Bcl-2; versus control): 2.12 fold
Cell cycle distribution %S (HepG2 cells): 38.68%
Cell cycle distribution % G2/M (HepG2 cells; listed as 12I): 32.10%
Cell cycle distribution %Sub-G1 (Pre-G1) (HepG2 cells; listed as 12I): 0.79%
Cell cycle distribution % G2/M (HepG2 cells; listed as 12 l): 32.10 ± 181 %
Cell cycle distribution %G1 (HepG2 cells; listed as 12 l): 28.43 ± 0.37 %
Cell cycle distribution %S (HepG2 cells; listed as 12 l): 38.68 ± 1.81 %
Cell cycle distribution %Sub-G1 (Pre-G1) (HepG2 cells; listed as 12 l): 0.79 ± 0.25%
